For test [1], the system named is fed male obese Zucker rat. Description: The snacking model: consumption of a palatable high fat or low fat meal. The test is classed as in vivo. The source says: Rats are habituated to the presence of a palatable high fat meal (Research diets 45% fat D12451) or another palatable low fat meal (Research diets 10% fat D12450B) in their home cage during four hours in the morning two times a week, 9-13a.m. The rats feed ad libitum on rat chow (Altromin #1324, 4% fat) outside the hours of the session and water is present adlibitum. The consumption of the meal is monitored, and as it stabilises, by 7-9 sessions, the animal is ready for use.
The animals are tested two times a week, and the baseline is re-established within 24h. During the experimental session, the compound is administered 30 minutes before the session starts. Food and water intake is monitored at 2 and 4 hours after the meal is presented.

The target in test [2] is T1, KATP-channels on pancreatic beta-cells (Homo sapiens, UniProt Q09428).
T1 construct: KATP-channels on pancreatic beta-cells; host or cells: pancreatic beta-cells (endogenous)
T1 sequence (Q09428 whole entry): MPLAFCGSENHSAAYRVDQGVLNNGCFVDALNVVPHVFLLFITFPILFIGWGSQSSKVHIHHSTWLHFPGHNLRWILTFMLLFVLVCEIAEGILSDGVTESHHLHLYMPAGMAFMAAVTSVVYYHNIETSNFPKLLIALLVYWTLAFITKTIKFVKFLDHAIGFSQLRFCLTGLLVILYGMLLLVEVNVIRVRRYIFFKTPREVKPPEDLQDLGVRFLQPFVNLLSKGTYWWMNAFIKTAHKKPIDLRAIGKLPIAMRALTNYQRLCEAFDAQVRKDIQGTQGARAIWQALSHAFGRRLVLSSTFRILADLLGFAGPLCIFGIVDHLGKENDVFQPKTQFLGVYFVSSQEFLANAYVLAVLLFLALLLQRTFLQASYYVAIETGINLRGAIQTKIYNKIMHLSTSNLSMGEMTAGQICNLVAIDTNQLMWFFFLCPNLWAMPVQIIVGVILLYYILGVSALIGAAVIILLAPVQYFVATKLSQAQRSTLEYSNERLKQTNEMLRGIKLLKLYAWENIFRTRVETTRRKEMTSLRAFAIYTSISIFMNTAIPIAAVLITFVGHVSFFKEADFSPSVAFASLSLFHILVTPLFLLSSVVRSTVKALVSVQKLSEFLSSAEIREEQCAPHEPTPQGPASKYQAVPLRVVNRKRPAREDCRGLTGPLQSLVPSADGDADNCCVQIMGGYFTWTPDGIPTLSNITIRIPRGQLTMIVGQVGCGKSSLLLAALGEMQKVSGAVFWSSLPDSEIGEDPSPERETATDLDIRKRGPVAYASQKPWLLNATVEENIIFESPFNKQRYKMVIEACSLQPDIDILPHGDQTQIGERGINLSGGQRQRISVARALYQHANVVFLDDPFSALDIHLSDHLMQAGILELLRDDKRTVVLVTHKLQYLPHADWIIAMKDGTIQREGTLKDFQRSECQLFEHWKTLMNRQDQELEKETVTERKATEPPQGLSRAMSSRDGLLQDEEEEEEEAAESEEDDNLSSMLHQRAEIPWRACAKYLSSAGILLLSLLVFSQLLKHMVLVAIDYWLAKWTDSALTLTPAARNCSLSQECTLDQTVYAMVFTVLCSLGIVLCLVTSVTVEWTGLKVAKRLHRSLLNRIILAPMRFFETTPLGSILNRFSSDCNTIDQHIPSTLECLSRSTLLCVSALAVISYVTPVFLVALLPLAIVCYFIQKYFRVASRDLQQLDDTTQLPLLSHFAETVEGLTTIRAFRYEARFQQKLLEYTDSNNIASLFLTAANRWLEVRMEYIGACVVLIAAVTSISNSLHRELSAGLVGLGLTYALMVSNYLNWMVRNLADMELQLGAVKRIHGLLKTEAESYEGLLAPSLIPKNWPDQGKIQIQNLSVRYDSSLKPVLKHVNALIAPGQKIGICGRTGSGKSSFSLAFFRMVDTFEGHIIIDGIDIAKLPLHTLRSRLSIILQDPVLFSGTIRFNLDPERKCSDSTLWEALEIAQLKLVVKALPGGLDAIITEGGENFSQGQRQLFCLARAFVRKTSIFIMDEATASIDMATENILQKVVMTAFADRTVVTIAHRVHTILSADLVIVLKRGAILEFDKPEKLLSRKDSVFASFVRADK
T1 sequence (Q14654 whole entry partner): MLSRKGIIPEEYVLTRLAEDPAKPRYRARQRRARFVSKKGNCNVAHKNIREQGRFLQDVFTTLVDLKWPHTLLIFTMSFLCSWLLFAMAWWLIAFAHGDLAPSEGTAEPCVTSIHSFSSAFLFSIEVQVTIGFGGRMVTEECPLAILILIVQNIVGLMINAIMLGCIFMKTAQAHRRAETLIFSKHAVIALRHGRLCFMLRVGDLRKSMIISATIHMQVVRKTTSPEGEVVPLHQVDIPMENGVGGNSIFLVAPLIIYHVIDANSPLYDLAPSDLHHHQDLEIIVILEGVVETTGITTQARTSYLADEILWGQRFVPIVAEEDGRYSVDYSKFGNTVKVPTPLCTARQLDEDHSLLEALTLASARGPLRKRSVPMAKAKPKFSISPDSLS
As to conditions: by activation of KATP-channels on pancreatic beta-cells; cited from earlier work.

In test [3] the test system is hyperinsulinemic obese individuals. The settings on record: 8 weeks treatment; cited from earlier work.
A further test has as its system obese Zucker rats. As to conditions: cited from earlier work.
A further test concerns rats. The settings on record: cited from earlier work.
A further test concerns mice. The settings on record: intracerebroventricular administration; cited from earlier work.
The mark [4] stands for this setting: 30 mg/kg PO admin., 30 minutes before session.

The text below walks through data of patent publication US20020035106A1, “Use of potassium channel agonists for reducing fat food consumption” (priority 2000, published 2002).

As to `CC1(NC2=NS(=O)(=O)c3sc(Cl)cc3N2)CC1` [6-Chloro-3-(1-methylcyclopropyl)amino-4H-thieno[3,2-e]-1,2,4-thiadiazine 1,1-dioxide], the “reduced consumption of a high fat meal (45 kcal % fat)” value (from here on “reduced consumption … (45 kcal % fat)”) in test [1] (5 mg/kg PO admin.) worked out at 44%; in test [1] (15 mg/kg PO admin.), 64%; in test [1] (setting [4]) it was 86%. The “reduced consumption of a low fat meal (10 kcal % fat)” value (“reduced consumption … (10 kcal % fat)” below) came to 15% in test [1] (5 mg/kg PO admin.), 57% in test [1] (15 mg/kg PO admin.) and 75% in test [1] (setting [4]).

As to `CC(C)NC1=NS(=O)(=O)c2sc(Cl)cc2N1` [6-Chloro-3-isopropylamino-4H-thieno[3,2-e]-1,2,4-thiadiazine 1,1-dioxide], in test [1] (setting [4]), the “reduced consumption … (45 kcal % fat)” value came to 77% and the “reduced consumption … (10 kcal % fat)” value came to 61%.

For the compound `CC1=Nc2ccc(Cl)cc2S(=O)(=O)N1` [Diazoxide, 7-chloro-3-methyl-2H-1,2,4-benzothiadiazine 1,1-dioxide], in test [1] (setting [4]), the “reduced consumption … (45 kcal % fat)” value is listed as 53% and the “reduced consumption … (10 kcal % fat)” value was 42%. In addition, the insulin release entry in test [2] was “inhibit insulin release”. Further, in test [3], the antiobesity effect result is listed as “significant antiobesity effect”. In addition, the “leptin and lipid metabolising enzymes” value with obese Zucker rats (adipose tissue of Zucker rats) was “down-regulate leptin and lipid metabolising enzymes”. Besides, in the test with obese Zucker rats (obese Zucker rats), the glucose tolerance entry is on record as “improve glucose tolerance”, the insulin receptor binding entry is on record as “increase insulin receptor binding”, the insulin secretion result is “decrease insulin secretion” and the weight gain entry is recorded as “decrease weight gain”.

For `CC1(C)Oc2ccc(C#N)cc2C(N2CCCC2=O)C1O` (stereo not drawn) [cromakalim], the intake of food result in the test with rats (intraperitonal administration) is recorded as “reduces the intake of food”; with mice it was “increase to intake of food”.

With `COc1ccc(Cl)cc1C(=O)NCCc1ccc(S(=O)(=O)NC(=O)NC2CCCCC2)cc1` [glibenclamide], in the test with rats (central administration), the food intake entry was “reduce food intake”.

For the compound `CC(N/C(=N\C#N)Nc1ccncc1)C(C)(C)C` (stereo not drawn) [pinacidil], in the test with mice, the intake of food result is “increase to intake of food”.
